Assay results: patent US20170354669A1, “DISRUPTION OF THE INTERACTION BETWEEN AMYLOID BETA PEPTIDE AND DIETARY LIPIDS” (The Trustees of Columbia University in the City of New York, priority 2016, published 2017)
“And” between values parts separate entries of the source, which are not always exact repeats. Equal entries are not always repeated. “Also recorded” adds a separate entry of the source.

Legend:
[1] = target: T1, Aβ42 (Homo sapiens, UniProt P05067); assay: Lipid binding assay: Aβ42-FAM binding to plate-bound amine-containing lipids
T1 construct: SensoLyte Fluorescent β-Amyloid1-42 Sampler Kit, Anaspec; purchased Anaspec
Text: Maleic Anhydride Activated plates (Pierce Amine-binding, 96-well plates, Thermo Scientific) were washed in wash buffer (PBS: Phosphate buffered saline, 0.15 M sodium chloride, pH 7.2 containing 0.05% Tween-20 Detergent, PBST, Thermo Scientific) 4 times to activate reactive maleic anhydride functional group. Amine containing lipids were PE containing docosahexaenoyl (22:6) and stearoyl (18:0) acyl chains (22:6/18:0 PE) or two stearoyl acyl chains (di18:0 PE) were from Avanti Polar Lipids. 22:6/18:0 PE was obtained in chloroform, dried down and solubilized at 200 pmol/μL in 1% n-octylglucoside (NOG, Santa Cruz) in PBS and sonicated for […]. di18:0 PE was obtained as a powder, solubilized at 200 pmol/μl in 1% NOG and bath sonicated for 5 minutes. Lipids were incubated at a volume of 100 μL in activated maleic anhydride plates at increasing concentration at 4° C. in PBS/1% NOG. After incubation, lipids were removed and SuperBlock Blocking Buffer/PBS (Thermo) was added at a volume of […] for 1 hour at room temperature. Plates were then washed 4 times with PBST (Thermo Scientific). Fluorescently labeled amyloid β-peptide (SensoLyte Fluorescent β-Amyloid1-42 Sampler Kit, Anaspec) was prepared with […], Component B, Solvent for β-amyloid (Anaspec) as per the commercial protocol and then diluted in deionized water to a concentration of 100 μM. […] Plates were then washed 4 times in PBST and fluorescence was detected using Tecan Infinite 200 at wavelengths 494/521 (excitation, emission) using the Optimal Gain setting.
Assays were done in triplicate wells and reported as mean+/−standard error. Binding kinetics and best fit curve fitting were accomplished using Prism Graphpad software.
Lipid containing long chain polyunsaturated fatty acid 22:6, docosahexaenoic acid (DHA) and an amine containing headgroup, phosphatidylethanoloamine (PE) was bound to maleic anhydride activated plates which bind to free primary amine functional groups at neutral and alkaline pH. […] Specific binding was calculated by subtracting background binding of di18:0 PE.

[2] = tested on: APPsw+ mice; assay: Nesting behavior after intranasal treatment; type: in vivo; settings: 10 days intranasal low dose 0.5 mg/kg every other day, vs saline treated APPsw+, FIG. 4A
Experimental: SDPC was obtained from Avanti Polar Lipids (850472C) in chloroform, dried under vacuum conditions and resuspended in 0.9% saline (0.9% sodium chloride injection, USP, NDC 0409-7983-61, Hospira) containing 0.2% (weight:volume) methyl cellulose (average Mn 40,000, viscosity: 400 cP, CAS 9004-67-5, Sigma-Aldrich 274429) to aid in solubilization. A control solution of 0.9% saline containing 0.2% methyl cellulose was prepared at the same time without SDPC. A concentration of 3 mg/ml was used for doses 1-15 and 12 mg/ml was used for doses 16-18 (FIG. 3). Brief (3-5 minutes) bath sonication was used to improve solubility of 12 mg/ml concentration. Mice were treated for 10 days at a low dose of SDPC intranasally administered 2.5 uL each nostril (5 μL total dose) for 0.5 mg/kg every other day assuming average mouse weight of 30 g (0.03 kg) (FIG. 3). After 10 days, dose was escalated to 2 mg/kg every other day for an additional 19 days (total treatment time […]). Doses 16-18 were administered daily. Non-invasive behavioral testing using novel object recognition (118) and Nesting behavior (114) were used to assess behavioral function. Deficits were expected in APPsw+ (Tg) mice and compared to wild type littermates of the same age (13-14 months). […]

[3] = tested on: APPsw+ mice; assay: Novel object recognition (NOR) training and testing, activity and exploration; type: in vivo
Experimental: FIGS. 6A-6B. 30 days treatment with escalating dose SDPC. (A) Mice were placed in a box with two identical objects for 10 minutes on the training day 1. […] One object was replaced with a novel object for testing (NOD index). The same data is shown to scale in FIG. 6B (Testing (immediate)). Twenty-four hours later (Testing (24 hours)), mice were placed in the same context with one of the original identical objects (Familiar) and a second novel object (Novel). The time spent with each object was recorded. (B) For testing, novel object discrimination (NOD index) is assessed using the equation [(time novel)/(time familiar+time novel)]. NOD index of 0.5 represents equal time with each object. NOD>0.5 represents more time spent with novel object. Standard error is shown for means of Saline treated APPsw+(control) (n=4); SDPC treated APPsw+ (n=5) and wild type receiving no treatment (n=4). Significance was determined for […] using Student's t-test. SDPC was obtained from Avanti Polar Lipids (850472C) in chloroform, dried under vacuum conditions and resuspended in 0.9% saline (0.9% sodium chloride injection, USP, NDC 0409-7983-61, Hospira) containing 0.2% (weight:volume) methyl cellulose (average Mn 40,000, viscosity: 400 cP, CAS 9004-67-5, Sigma-Aldrich 274429) to aid in solubilization. A control solution of 0.9% saline containing 0.2% methyl cellulose was prepared at the same time without SDPC. A concentration of 3 mg/ml was used for doses 1-15 and 12 mg/ml was used for doses 16-18 (FIG. 3). Brief (3-5 minutes) bath sonication was used to improve solubility of 12 mg/ml concentration. Mice were treated for 10 days at a low dose of SDPC intranasally administered 2.5 uL each nostril (5 μL total dose) for 0.5 mg/kg every other day assuming average mouse weight of 30 g (0.03 kg) (FIG. 3). After 10 days, dose was escalated to 2 mg/kg every other day for an additional 19 days (total treatment time […]). Doses 16-18 were administered daily. Non-invasive behavioral testing using novel object recognition (118) and Nesting behavior (114) were used to assess behavioral function. Deficits were expected in APPsw+ (Tg) mice and compared to wild type littermates of the same age (13-14 months). APPsw+ mice were treated (Tx) with either control solution of 0.9% saline containing 0.2% methyl cellulose [Saline] or SDPC in 0.9% saline containing 0.2% methyl cellulose [SDPC]. […] Significant changes were seen using Student's t-test comparing SDPC and wild type (non-treated) [WT Ntx] and comparing saline and WT Ntx, but not when comparing SDPC and saline groups likely due to small sample size (n=4-5).

[4] = tested on: APPsw+ mice; assay: Open Field testing; type: in vivo; settings: 10 days intranasal low dose, following NOR testing; FIG. 4D
Experimental: FIGS. 4A-4D. 10 days treatment with low dose SDPC. (A) After 10 days treatment (Tx) with low dose phosphatidylcholine (PC) containing docosahexaenoyl (22:6) and stearoyl (18:0) acyl chains, 18:0-22:6 PC; 1-stearoyl-2-docosahexaenoyl-sn-glycero-3-phosphocholine (CAS Number 59403-52-0; Synonyms: 1-octadecanoyl-2-(4Z,7Z,10Z,13Z,16Z,19Z-docosahexaenoyI)-sn-glycero-3-phosphocholine and PC(18:0/22:6(4Z,7Z,10Z,13Z,16Z,19Z))) (SDPC) intranasally, nesting score was assessed as described before (114). The number of nestlettes (from 3 initially placed in cage) was estimated and exact weight of remaining nestlettes was determined in grams (g) from initial 3 nestlettes (approximately 2 g). (B) Activity during novel object recognition (NOR) training was assessed after 10 days intranasal SDPC. Grooming behavior, free rearing, wall rearing and center crossing events are shown and were summed in total events. (C) Time spent with each identical object during NOR training. (D) Activity during Open Field testing 24 hours after NOR training (note, no difference in novel object discrimination (NOD) index was found. Standard error is shown for means of Saline treated APPsw+(control) (n=4); SDPC treated APPsw+ (n=5) and wild type receiving no treatment (n=4). Significance was determined for […] using Student's t-test. […]

[5] = tested on: APPsw+ mice; assay: Novel object recognition (NOR) training and testing, activity and exploration; type: in vivo; settings: 10 days intranasal low dose
[6] = target: T2, Aβ42-FAM bound lipids containing 22:6 (Homo sapiens, UniProt P05067); assay: Competition of Aβ42-FAM binding to plate-bound 22:6 lipid; settings: competitor peptide 5×, 1 μM; FIG. 1C
T2 construct: SensoLyte Fluorescent β-Amyloid1-42 Sampler Kit, Anaspec; purchased Anaspec
Experimental: Scrambled Aβ or unlabeled Aβ42 peptides (Anaspec) were diluted to 100 μM as above and then diluted in SuperBlock Blocking buffer to 1 μM, incubated for 1 hour at room temperature. Plates were washed and FAM fluorescence was read as above. Lipid containing long chain polyunsaturated fatty acid 22:6, docosahexaenoic acid (DHA) and an amine containing headgroup, phosphatidylethanoloamine (PE) was bound to maleic anhydride activated plates which bind to free primary amine functional groups at neutral and alkaline pH. All binding and washing steps were done in PBS, PBST and SuperBlock PBS to maintain pH at 7.2. A control acyl chain lipid hypothesized not to bind to Aβ peptide was 18:0, stearic acid containing PE (di18:0). After lipids were bound and unreacted binding sites were blocked using SuperBlock, Aβ42 peptide fluorescently tagged with FAM (Anaspec) was incubated with lipid bound wells. […] The dissociation constant Kd was calculated to be 300 nM. Specific binding was calculated by subtracting background binding of di18:0 PE.

In the case of `CC/C=C\C/C=C\C/C=C\C/C=C\C/C=C\C/C=C\CCC(=O)O` [DHA, docosahexaenoic acid], the Kd ([1]; read-out: dissociation constant Kd of Aβ binding to DHA) is reported as ~300 nM and 300 nM.

In the case of `CC/C=C\C/C=C\C/C=C\C/C=C\C/C=C\C/C=C\CCC(=O)O[C@H](COC(=O)CCCCCCCCCCCCCCCCC)COP(=O)([O-])OCC[N+](C)(C)C` [SDPC, 1-stearoyl-2-docosahexaenoyl-sn-glycero-3-phosphocholine], the nesting behavior [2] is reported as “trend toward improvement; also recorded: non-significant trend for improvement”, the “discrimination of one displaced identical object (hippocampal function)” value ([3]; 30 days escalating dose, training day 2, FIG. 6A) is reported as “no discrimination was determined” and the “number of wall rears and total activity events” value ([3]; 30 days intranasal escalated dose (to 2 mg/kg), SDPC vs saline treated APPsw+, FIG. 5) is reported as “significant improvement”. The “NOR deficits: time spent with a novel object” value ([3]; 30 days intranasal escalated dose, FIG. 6) was “significant amelioration”, the “novel object discrimination index (NOD index)” value ([3]; 30 days intranasal escalated dose, FIG. 6B) was “significant changes were not observed; also recorded: trend for amelioration” and the “activity in the open field test” value [4] was “continued improvement of activity level; also recorded: restored to the level of wild type non-treated mice”. For the same compound, the “NOR discrimination (NOD index) 24 hours after training” value [5] was “no discrimination was found; also recorded: no difference”, the “activity during NOR training (wall rearing, free rearing, total activity level)” value ([5]; vs saline treated APPsw+, FIG. 4B) was “trend toward improvement; also recorded: non-significant trend for improvement” and the “exploration: time spent with identical objects during NOR training” value ([5]; FIG. 4C) was “trend toward improved exploratory behavior; also recorded: non-significant trend toward exploration activity”.

For `CCCCCCCCCCCCCCCCCC(=O)OC[C@H](COP(=O)(O)OCCN)OC(=O)CCCCCCCCCCCCCCCCC` [di18:0 PE, reference compound], the “binding of Aβ42-FAM to plate-bound lipid” value ([1]; FIGS. 1A and 1B, di18:0 at concentrations 10,000 pmol/well and below) was “very low binding activity” and the “binding of Aβ42-FAM to plate-bound lipid at the highest concentrations” value ([1]; only at the highest concentrations of lipid) was “modest binding”.

For “unlabeled Aβ42 peptide: unlabeled Aβ42 peptide (Anaspec) used as competitor”, the “competitive disruption of Aβ42-FAM binding to 22:6 lipid” value [6] was “competitively disrupted”.
